# Reference: patent US9969743B2, “Urea and amide derivatives of aminoalkylpiperazines and use thereof” (Southern Research Institute, priority 2012, dated 2018)
# Assays:
# [1] = molecular target: human D2 dopamine receptors (HEK cells) (Homo sapiens (Human), UniProt P14416); assay: Whole cell adenylyl cyclase assay, D2; type: cell-based; settings: inhibition of forskolin (100 μM) stimulated cAMP, normalized to quinpirole; conc >10× Ki, per compound in Conc (nM); mean ± S.E.M.
# Experimental: Functional Activity. Whole cell adenylyl cyclase assay. The intrinsic activity of the compounds was evaluated by determining their ability to inhibit forskolin-dependent (100 μM) stimulation of adenylyl cyclase activity using a whole cell assay. A whole cell-cyclic AMP accumulation assay was performed with stably transfected HEK cells expressing human D2 or D3 dopamine receptors. This assay is an adaptation of an earlier published method (Su et al., Cyclic Nucleotide Res. 1976, 2, 257-285). Details regarding this method have been published (Chu, W. et al. Bioorg. Med. Chem. 2005, 13, 77-87; Taylor, M. et al. Synapse 2010, 64, 251-266). Confluent (60-80%) HEK cells transfected with recombinant D2-like dopamine receptors were grown in DMEM/10% fetal calf serum containing geneticin in […]. The endogenous ATP pool is radioactively labeled by preincubating the cells in serum-free DMEM/25 mM Hepes medium containing 2 μCi/mL of [2,8-^3H]-adenine (20-Ci/mmol) in a 5% CO2 incubator at 37° C. for 75 min. The radioactive medium was removed by aspiration. Serum-free DMEM (5.6 mL) containing 25 mM HEPES, pH 7.4, and 0.1 mM of the phosphodiesterase inhibitor isobutylmethylxanthine was added to the flask. A 400-μL aliquot of cells was removed and added to 50 μL of forskolin (100 μM) and 50 μL of test drug or quinpirole in DMEM-HEPES. The cells were incubated for 20 min at 37° C. (vortexing every 5 min). The reaction was terminated by the addition of 0.5 mL of 10% trichloroacetic acid (w/v) containing 1.0 mM unlabeled cyclic AMP as a recovery standard. Both the [^3H]-cyclic AMP and the [^3H]-ATP fractions were collected following separation using columns of Dowex AG-50W-X4 and alumina. The final yield of [^3H]-cyclic AMP is corrected for column recovery of unlabeled cyclic AMP determined spectrophotometrically (OD259). The results are reported as percent conversion of [^3H]-ATP into [^3H]-cyclic AMP. The values for the percent inhibition are reported as the actual percent of inhibition of the ^3H-cAMP accumulation relative to the assay performed in the absence of a test compound, minus basal activity. […] The percent maximum response is the value for the inhibition normalized to the value for the full agonist quinpirole.
# [2] = molecular target: human D3 dopamine receptor (Homo sapiens (Human), UniProt P35462); assay: Radioligand binding (125I-IABN competition), D3 dopamine receptor; settings: for Ki: 125I-IABN competition, membranes of stably transfected HEK cells, 37° C. 60 min, Cheng and Prusoff; for D2/D3 (D3 selectivity ratio, D2 Ki/D3 Ki): calculated from binding Ki values
# human D3 dopamine receptor, sequence (P35462 whole entry): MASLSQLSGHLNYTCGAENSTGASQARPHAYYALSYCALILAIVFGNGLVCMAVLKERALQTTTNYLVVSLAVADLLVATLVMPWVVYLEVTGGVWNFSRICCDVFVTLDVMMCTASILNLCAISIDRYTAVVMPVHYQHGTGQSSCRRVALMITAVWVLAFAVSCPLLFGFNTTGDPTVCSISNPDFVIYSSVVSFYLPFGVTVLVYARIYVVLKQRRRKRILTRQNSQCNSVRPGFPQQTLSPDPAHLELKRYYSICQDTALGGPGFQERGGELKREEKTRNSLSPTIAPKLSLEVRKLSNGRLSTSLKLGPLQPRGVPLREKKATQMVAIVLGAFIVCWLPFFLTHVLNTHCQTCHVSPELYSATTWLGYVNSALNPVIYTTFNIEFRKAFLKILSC
# Experimental: (§1) Binding Affinity. The affinities of the target compounds were determined using radioligand binding experiments.
# (§2) Competition curves were modeled for a single site. Data from competition dose-response curves were analyzed using Tablecurve program (Jandel). IC50 values were converted to equilibrium dissociation constants (Ki values) using the Cheng and Prusoff correction.
# [3] = molecular target: human D2-long dopamine receptor (Homo sapiens (Human), UniProt P14416); assay: Radioligand binding (125I-IABN competition), D2-long dopamine receptor; settings: membranes of stably transfected HEK cells, 37° C. 60 min, Cheng and Prusoff
# human D2-long dopamine receptor, sequence (P14416 whole entry): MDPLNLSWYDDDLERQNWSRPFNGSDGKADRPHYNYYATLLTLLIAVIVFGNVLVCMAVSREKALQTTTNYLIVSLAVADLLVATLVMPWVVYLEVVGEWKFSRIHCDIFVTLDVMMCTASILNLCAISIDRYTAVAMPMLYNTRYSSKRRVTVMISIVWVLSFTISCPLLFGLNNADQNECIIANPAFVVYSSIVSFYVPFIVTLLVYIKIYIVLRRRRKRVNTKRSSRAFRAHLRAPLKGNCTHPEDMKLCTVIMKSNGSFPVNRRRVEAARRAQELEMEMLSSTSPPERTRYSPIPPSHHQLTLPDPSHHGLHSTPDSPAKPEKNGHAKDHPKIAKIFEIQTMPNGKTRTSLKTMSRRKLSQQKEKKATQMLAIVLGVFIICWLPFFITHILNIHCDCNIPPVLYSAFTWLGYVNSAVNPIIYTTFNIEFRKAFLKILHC
# Experimental: as §1, §2
# human D2 dopamine receptors (HEK cells), sequence (P14416 whole entry): as above
Structure (SMILES),D2 Cyclase % Inhibition Normalized [1],Ki [2],"D2/D3 (D3 selectivity ratio, D2 Ki/D3 Ki) [2]",Ki [3]
"CC(C)(C)c1nc(N2CCN(CCCCNC(=O)N3CCN(c4ccccc4)CC3)CC2)c2ccccc2n1 [Compound 13, N-(4-(4-(2-(tert-Butyl)quinazolin-4-yl)piperazin-1-yl)butyl)-4-phenylpiperazine-1-carboxamide]",Insoluble,–,–,–
"CC(C)(C)c1nc(N2CCN(CCCCNC(=O)c3cn4ccncc4n3)CC2)cc(C(F)(F)F)n1 [Compound 115, N-(4-(4-(2-(tert-Butyl)-6-(trifluoromethyl)pyrimidin-4-yl)piperazin-1-yl)butyl)imidazo[1,2-a]pyrazine-2-carboxamide]",Insoluble,–,–,–
"CC(C)(C)c1nc(N2CCN(CCCCNC(=O)c3cn4nc(Cl)ccc4n3)CC2)cc(C(F)(F)F)n1 [Compound 116, N-(4-(4-(2-(tert-Butyl)-6-(trifluoromethyl)pyrimidin-4-yl)piperazin-1-yl)butyl)-6-chloroimidazo[1,2-b]pyridazine-2-carboxamide]",Insoluble,–,–,–

# The next lines start with the values.
D2 Cyclase % Inhibition Normalized [1],Ki [2],"D2/D3 (D3 selectivity ratio, D2 Ki/D3 Ki) [2]",Ki [3],Structure (SMILES)
–,245 ± 46.4 nM,10,2440 ± 175 nM,"CC(C)(C)c1cc(N2CCN(CCCCNC(=O)N3CCc4c([nH]c5ccccc45)C3)CC2)cc(C(C)(C)C)c1 [Compound 97, N-(4-(4-(3,5-Di-tert-butylphenyl)piperazin-1-yl)butyl)-1,3,4,9-tetrahydro-2H-pyrido[3,4-b]indole-2-carboxamide]"
–,57.1 ± 3.5 nM,–,789 ± 45.7 nM,"CC(C)(C)c1nc(C2CC2)cc(N2CCN(CCCCNC(=O)N3CCc4c([nH]c5ccccc45)C3)CC2)n1 [Compound 101, N-(4-(4-(2-(tert-Butyl)-6-cyclopropylpyrimidin-4-yl)piperazin-1-yl)butyl)-1,3,4,9-tetrahydro-2H-pyrido[3,4-b]indole-2-carboxamide]"
–,9.5 ± 1.7 nM,33,308 ± 29.9 nM,"CC(C)(C)c1cc(N2CCN(CCCCNC(=O)N3CCc4c([nH]c5ccccc45)C3)CC2)nc(C(C)(C)C)n1 [Compound 56, N-(4-(4-(2,6-Di-tert-butylpyrimidin-4-yl)piperazin-1yl)butyl)-1,3,4,9-tetrahydro-2H-pyrido[3,4-b]indole-2-carboxamide]"
Insoluble,–,–,–,"CC(C)(C)c1nc(N2CCN(CCCCNC(=O)N3CCC(c4ccccc4)CC3)CC2)cc(C(F)(F)F)n1 [Compound 48, N-(4-(4-(2-(tert-Butyl)-6-(trifluoromethyl)pyrimidin-4-yl)piperazin-1-yl)butyl)-4-phenylpiperidine-1-carboxamide]"
